In US20260250337A1, “HYBRID ANTIMICROBIAL PEPTIDES” (UNIVERSIDADE FEDERAL DO ABC, priority 2023, published 2026):
No end group written: not given here.

Key:
A. baumannii ATCC19606 [1] = assay: Skin abscess infection mouse model; type: in vivo, mice; conditions: for anti-infective activity four days after the treatment, reduction of load of A. baumannii cells / anti-infective activity two days post-treatment: skin infection, peptides onto the abscess at their MIC; for anti-infective activity versus parent peptides: skin scarification mouse model
Description: Skin abscess infection mouse model. The anti-infective activity of the peptides VmCT1, temporin A, VT, and TV against A. baumannii ATCC19606 was evaluated as described by Torres et al.^82. Bacteria were grown in tryptic soy broth medium to an optical density of 0.5 at 600 nm. Cells were washed twice with sterile phosphate buffered saline (pH 7.4, 13,000 rpm for 1 min) and resuspended to a final concentration of 1×10^7 CFU/20 μL. To generate the skin infection, female CD-1 mice (6 weeks-old) were first anesthetized with isoflurane and their backs were shaved. A superficial linear abrasion was made with a needle on the shaved area to injure only the stratum corneum and the upper layer of the epidermis. An aliquot of 20 μL suspension containing 1×10^7 CFU of A. baumannii was then inoculated over the wound area with a pipette tip. The next day, the infected area was inoculated with the peptides (VmCT1, temporin A, VT, and TV), which were administered onto the abscess at their MIC. The animals were euthanized, and the scarified skin area removed 2- and 4-days post-infection. The excised area was homogenized using a bead beater for 20 min (25 Hz) and serially diluted for CFU quantification. Two independent experiments were carried out with 3 mice per group in each condition.

skin tissue = assay: Skin tissue histopathological analysis (H&E); type: in vivo, mice; conditions: 24 h after infection and treatment
Description: Skin tissue histopathological analysis. […] The fur on the back of the mice was removed and the mice were infected and treated as described in the Skin abscess infection mouse model section. After 24 h, mice were euthanized for tissue collection. Samples were pre-fixed in individual cassettes, then transferred to a container filled with 70% EtOH for slicing and staining. Next, the samples were placed on glass slides for microscopy analysis. We collected the tissue from three mice per condition analyzed.

A. baumannii ATCC19606 [2] = assay: DiSC3(5) assay, cytoplasmic membrane depolarization; type: cell-based; conditions: peptides at their MIC
Description: Method. The cytoplasmatic membrane depolarization activity of two of the naturally occurring peptides (VmCT1 and temporin A) and two of the hybrids (VT and TV) was determined at their MIC by performing the membrane potential-sensitive dye DiSC3(5), as reported previously^105, 106. A. baumannii ATCC19606 cells were grown at 37° C. with agitation to an optical density of 600 nm (OD600) of 0.5, centrifuged, washed twice with buffer (5 mmol L^−1 HEPES, 20 mmol L^−1 glucose, pH 7.2), and resuspended to an OD600 of 0.05 in the same buffer but containing 0.1 mol L^−1 KCl. Cells (100 μL) were incubated for 15 minutes with 20 nmol L^−1 of DiSC3(5) until a stable reduction in fluorescence was observed, indicating the incorporation of the DiSC3(5) into the bacterial membrane. After adding the peptides (100 μL solution at 1.2 μmol L^−1), membrane depolarization was determined by the change observed in the fluorescence emission intensity of the dye at λex=622 nm and […].

A. baumannii ATCC19606 [3] = assay: NPN uptake assay, outer membrane permeabilization; type: cell-based; conditions: peptides at their MIC
Description: Method. Membrane permeabilization was assessed for two of the naturally occurring peptides (VmCT1 and temporin A) and two of the hybrids [VmCT1-temporin A (VT) and temporin A-VmCT1 (TV)] at their MIC by using the N-phenyl-1-naphthylamine (NPN) uptake assay as previously described^104, 105. Briefly, A. baumannii ATCC19606 cells were grown to an optical density at 600 nm (OD600) of 0.4, centrifuged (10,000 rpm at 4° C. to 10 minutes), washed, and resuspended in buffer (5 mmol L^−1 HEPES, 5 mmol L^−1 glucose, pH 7.4). Four μL of NPN solution (0.5 mmol L^−1; working concentration of 10 μmol L^−1, after dilutions) was added to 100 μL of the bacterial solution in 96-well plates. The background fluorescence was then determined at λex=350 nm and […]. The peptides resuspended in water (100 μL at a concentration of 1.2 μmol L^−1) were added to each 96-well plate. The fluorescence was determined as a function of time until no further increase in fluorescence was observed (45 min).

[4] = tested on: MCF-7 human breast cancer cells; assay: Anticancer activity, MTT assay; type: cell-based; conditions: for MCF-7 4 h LD50 / MCF-7 24 h LD50: MTT
Description: The anticancer activity assays were performed using MCF-10A human breast epithelial cells and MCF-7 mammary cancer cells as previously described by Pedron et al. 86. Briefly, the day before treatment, the cells were incubated at 37° C. and 5% CO2 for 24 h. The cells were treated with peptides ranging from 12.5 to 100 μmol L^−1 (MCF10-A cells) and 0.8 to 100 μmol L^−1 (MCF-7 cells) for 4 h and 24 h at 37° C., and cell viability was measured using 3-(4,5-Dimethylthiazol-2-yl)-2,5-diphenyltetrazolium bromide (MTT) assays 87. Three independent replicates were performed in each case.

[5] = Resistance to degradation in fetal bovine serum; type: in vitro ADME; conditions: for remaining at 0.5 h / remaining peptide, 30 min: 30 min; for remaining at 0.5 h: read-out: remaining peptide, 30 min
Description: The resistance to proteolytic degradation of the hybrid peptides was assessed by exposing them for 6 h to serum peptidases in a fetal bovine serum solution^68, 69 (FIG. 5a and Table S4). The peptide degradation kinetics were calculated by integrating the peak area of the peak in relation to the peptide at the beginning of the experiment (time=0) and comparing it to the integrated peak area relative to the peptides after exposure to the enzymes at time points: 0.5, 1, 2, 4, and 6 h (FIG. 5a and Table S4). […] However, AV was resistant to degradation against proteases, with almost 40% peptide content remaining after 4 h of exposure (FIG. 5a and Table S4). […] VP was almost entirely degraded after 30 min (22% of peptide remaining). […] D-amino acid substitutions have been used as alternatives to prevent the degradation of AMPs. For example, Qiu et. al. described a protonectin analog with a D-Lys residue in position 10 as an alternative to protonectin; this analog is not degraded and has higher antimicrobial activity against bacteria and fungi than the original peptide.
Methods. Stability assays were performed following the protocol described by Torres et al.^71. Briefly, a peptide solution was added to GIBCO fetal bovine serum diluted to 25% in water and kept at 37° C. The degradation kinetics were monitored by liquid chromatography and the percentage of peptide remaining was calculated by integrating the peptide peak area. The experiments were performed as three independent replicates, and aliquots were taken at 0, 0.5, 1, 2, 4, and 6 h.

[6] = bovine, fetal bovine serum, 25% in water, fetal bovine serum 25% in water, 37° C.
[7] = fetal bovine serum 25% in water, 37° C.

Substance: FLGAIGNVLKSIL-NH2 [TV, Phe-Leu-Gly-Ala-Ile-Gly-Asn-Val-Leu-Lys-Ser-Ile-Leu]
- anti-infective activity four days after the treatment, reduction of load of A. baumannii cells (A. baumannii ATCC19606 [1]): two orders of magnitude
- anti-infective activity two days post-treatment (A. baumannii ATCC19606 [1]): increased anti-infective activity when compared to the parent peptides
- anti-infective activity versus parent peptides (A. baumannii ATCC19606 [1]): more potent than that of either parent peptides
- tissue morphology / toxicity, H&E staining (skin tissue): Neither TV nor VmCT1 changed the tissue's morphology
- cytoplasmic membrane depolarization, DiSC3(5) fluorescence (A. baumannii ATCC19606 [2]): depolarized the cytoplasmic membrane
- outer membrane permeabilization, NPN fluorescence (A. baumannii ATCC19606 [3]): increased fluorescence compared to the control

Substance: FLPLLWRVASGVF-NH2 [VT, Phe-Leu-Pro-Leu-Leu-Trp-Arg-Val-Ala-Ser-Gly-Val-Phe]
- anti-infective activity four days after the treatment, reduction of load of A. baumannii cells (A. baumannii ATCC19606 [1]): the same effect as the two parent peptides
- anti-infective activity two days post-treatment (A. baumannii ATCC19606 [1]): increased anti-infective activity when compared to the parent peptides
- anti-infective activity versus parent peptides (A. baumannii ATCC19606 [1]): more potent than that of either parent peptides
- cytoplasmic membrane depolarization, DiSC3(5) fluorescence (A. baumannii ATCC19606 [2]): depolarized the cytoplasmic membrane
- outer membrane permeabilization, NPN fluorescence (A. baumannii ATCC19606 [3]): did not lead to increased fluorescence compared to the control

Substance: FLGALWNVAKSVF-NH2 [VmCT1, Phe-Leu-Gly-Ala-Len-Trp-Asu-Val-Ala-Lys-Ser-Val-Phe, reference compound]
- MCF-7 4 h LD50 [4]: 50 µmol/L
- MCF-7 24 h LD50 [4]: 12.5 µmol/L
- concentration with activity against MCF-7 human breast cancer cells ([4]; incubation time not stated): 50 µmol/L
- tissue morphology / toxicity, H&E staining (skin tissue): Neither TV nor VmCT1 changed the tissue's morphology
- remaining at 0.5 h [5, 6]: ~20%
- remaining at 1 h ([5]; bovine, fetal bovine serum, 25% in water, fetal bovine serum 25% in water, 37° C., 1 h, read-out: remaining peptide, 1 h): < 10%
- remaining at 2 h ([5]; bovine, fetal bovine serum, 25% in water, fetal bovine serum 25% in water, 37° C., 2 h, read-out: remaining peptide, 2 h): < 10%
- remaining peptide, 30 min [5, 7]: approximately 20%
- remaining peptide, 1 h ([5]; fetal bovine serum 25% in water, 37° C., 1 h): less than 10%
- outer membrane permeabilization, NPN fluorescence (A. baumannii ATCC19606 [3]): increased fluorescence compared to the control

Substance: ILGAILNVLKSLG-NH2 [PV, Ile-Leu-Gly-Ala-Ile-Leu-Asn-Val-Leu-Lys-Ser-Leu-Gly]
- remaining at 0.5 h [5, 6]: ~90%
- time of exposure after which totally degraded ([5]; fetal bovine serum): 1 h
- remaining peptide, 30 min [5, 7]: ~ 90%

Substance: FLPLIGRVLSGIL-NH2 [Temporin A, Phe-Leu-Pro-Leu-Ile-Gly-Arg-Val-Leu-Ser-Gly-Ile-Leu, reference compound]
- MCF-7 4 h LD50 [4]: 50 µmol/L
- MCF-7 24 h LD50 [4]: 50 µmol/L
- outer membrane permeabilization, NPN fluorescence (A. baumannii ATCC19606 [3]): increased fluorescence compared to the control
